The data set is described as follows: Comparison of solubility of precursor compounds according to the kind of reaction solvents (observation with the naked eye). It is filed as physicochemical. The conditions noted are these: for Solubility in 2-methyl-3-butene-2-ol (the present invention), 60° C. / Solubility in 2-methyl-3-butene-2-ol (the present invention), room temp: 1.0 ml 2-methyl-3-butene-2-ol; for Solubility in 2-methyl-3-butene-2-ol (the present invention), 60° C. / Solubility in 2-methyl-3-butyne-2-ol (the present invention), 60° C. / Solubility in t-amyl alcohol (KR 10-0789847), 60° C.: shaking 1 minute at 60° C.; for Solubility in 2-methyl-3-butene-2-ol (the present invention), 60° C. / Solubility in 2-methyl-3-butene-2-ol (the present invention), room temp / Solubility in 2-methyl-3-butyne-2-ol (the present invention), 60° C. / Solubility in 2-methyl-3-butyne-2-ol (the present invention), room temp / Solubility in t-amyl alcohol (KR 10-0789847), 60° C. / Solubility in t-amyl alcohol (KR 10-0789847), room temp: naked eye; for Solubility in 2-methyl-3-butene-2-ol (the present invention), room temp / Solubility in 2-methyl-3-butyne-2-ol (the present invention), room temp / Solubility in t-amyl alcohol (KR 10-0789847), room temp: shaking 1 minute at room temperature; for Solubility in 2-methyl-3-butyne-2-ol (the present invention), 60° C. / Solubility in 2-methyl-3-butyne-2-ol (the present invention), room temp: 1.0 ml 2-methyl-3-butyne-2-ol; for Solubility in t-amyl alcohol (KR 10-0789847), 60° C. / Solubility in t-amyl alcohol (KR 10-0789847), room temp: 1.0 ml t-amyl alcohol; for State of solution dissolved at 60° C. after cooling to room temperature, 2-methyl-3-butene-2-ol / 2-methyl-3-butyne-2-ol: solvents of the present invention, dissolved by heating to 60° C., cooled to room temperature; for State of solution dissolved at 60° C. after cooling to room temperature, t-amyl alcohol: cooled to room temperature after the lapse of time. Here is the method:
Experiments for comparing the solubility in the 2-methyl-3-butene-2-ol solvent and 2-methyl-3-butyne-2-ol solvent according to the present invention, and the t-amyl alcohol solvent of the prior art (KE 10-0789847) were performed. Each of the precursors of FP-CIT, FDG, FLT, FMISO and FC119S in solid states was put in a vial, and 1.0 ml of each solvent was added thereto, followed by shaking at room temperature and 60° C. for 1 minutes, respectively, for dissolution.

Data on six compounds can be found in patent publication US11306091B2, “Process for producing fluorinated compounds using alcohol solvent having unsaturated hydrocarbon” (FUTURECHEM CO., LTD, priority 2019, dated 2022).

Turning to `CS(=O)(=O)OCCCOc1ccc2ccccc2c1` [3-(naphthalene-2-yloxy)propyl methanesulfonate], the “Solubility in 2-methyl-3-butene-2-ol (the present invention), 60° C.” value (shortened to “Solubility in 2-methyl-3-butene-2-ol … 60° C.”) is given as “Dissolved” and the “Solubility in 2-methyl-3-butene-2-ol (the present invention), room temp” value (“Solubility in 2-methyl-3-butene-2-ol … room temp” for short) is given as “Dissolved”.
In the case of `CN(C(=O)OC(C)(C)C)c1ccc(-c2nc3ccc(OC[C@@H](COS(=O)(=O)c4ccc([N+](=O)[O-])cc4)OC4CCCCO4)cc3s2)cn1` (stereo partly drawn) [FC119S, (2S)-3-((2-(6-((tert-butoxycarbonyl) (methyl)amino)pyridin-3-yl)benzo[d]thiazol-6-yl)oxy)-2-((tetrahydro-2H-pyran-2-yl)oxy)propyl 4-nitrobenzenesulfonate], the “Solubility in 2-methyl-3-butene-2-ol … 60° C.” value was “Dissolved”; the “Solubility in 2-methyl-3-butene-2-ol … room temp” value is “Dissolved”; the “Solubility in 2-methyl-3-butyne-2-ol (the present invention), 60° C.” value (shortened to “Solubility in 2-methyl-3-butyne-2-ol … 60° C.”) is recorded as “Dissolved”; the “Solubility in 2-methyl-3-butyne-2-ol (the present invention), room temp” value (“Solubility in 2-methyl-3-butyne-2-ol … room temp” for short) is on record as “Dissolved”. In addition, the “Solubility in t-amyl alcohol (KR 10-0789847), 60° C.” value (shortened to “Solubility … (KR 10-0789847), 60° C.”) was “Insoluble” and the “Solubility in t-amyl alcohol (KR 10-0789847), room temp” value is “Insoluble”.
For the compound `O=[N+]([O-])c1nccn1CC(O)CF` (centres unmarked) [FMISO], the “Solubility in 2-methyl-3-butene-2-ol … 60° C.” value is on record as “Dissolved”; the “Solubility in 2-methyl-3-butene-2-ol … room temp” value is “Insoluble”; the “Solubility in 2-methyl-3-butyne-2-ol … 60° C.” value was “Dissolved”; the “Solubility in 2-methyl-3-butyne-2-ol … room temp” value is “Dissolved”. Also, the “Solubility … (KR 10-0789847), 60° C.” value is reported as “Dissolved”; the “Solubility in t-amyl alcohol (KR 10-0789847), room temp” value is given as “Insoluble”; the “State of solution dissolved at 60° C. after cooling to room temperature, 2-methyl-3-butene-2-ol / 2-methyl-3-butyne-2-ol” value was “not precipitated as solids”; the “State of solution dissolved at 60° C. after cooling to room temperature, t-amyl alcohol” value was “precipitated again as solids”.
For `CCC(Oc1ccc2ccccc2c1)OS(C)(=O)=O` (centres unmarked) [1-(naphthalene-2-yloxy)propyl methanesulfonate], the “Solubility in 2-methyl-3-butene-2-ol … 60° C.” value is “Dissolved” and the “Solubility in 2-methyl-3-butene-2-ol … room temp” value is “Dissolved”.
`Cc1cn([C@H]2C[C@H](OS(=O)(=O)c3ccc([N+](=O)[O-])cc3)[C@@H](COC(c3ccccc3)(c3ccccc3)c3ccccc3)O2)c(=O)n(C(=O)OC(C)(C)C)c1=O` [FLT, 3-N-Boc-5′-O-trityl-3′-O-nosyl-thymidine]: the “Solubility in 2-methyl-3-butene-2-ol … 60° C.” value is listed as “Dissolved”; the “Solubility in 2-methyl-3-butene-2-ol … room temp” value is listed as “Dissolved”; the “Solubility in 2-methyl-3-butyne-2-ol … 60° C.” value was “Dissolved”; the “Solubility in 2-methyl-3-butyne-2-ol … room temp” value is “Insoluble”. Besides, the “Solubility … (KR 10-0789847), 60° C.” value is reported as “Insoluble”; the “Solubility in t-amyl alcohol (KR 10-0789847), room temp” value was “Insoluble”; the “State of solution dissolved at 60° C. after cooling to room temperature, 2-methyl-3-butene-2-ol / 2-methyl-3-butyne-2-ol” value is listed as “not precipitated as solids”.
Turning to `CC(=O)OC[C@H]1O[C@@H](OC(C)=O)[C@@H](OS(=O)(=O)C(F)(F)F)[C@@H](OC(C)=O)[C@@H]1OC(C)=O` [FDG, 1,3,4,6-tetra-O-acetyl-2-O-trifluoro-methanesulfonyl-beta-D-mannopyranose], the “Solubility in 2-methyl-3-butene-2-ol … 60° C.” value is “Dissolved”; the “Solubility in 2-methyl-3-butene-2-ol … room temp” value is listed as “Dissolved”; the “Solubility in 2-methyl-3-butyne-2-ol … 60° C.” value is “Dissolved”; the “Solubility in 2-methyl-3-butyne-2-ol … room temp” value was “Dissolved”. The “Solubility … (KR 10-0789847), 60° C.” value was “Dissolved”; the “Solubility in t-amyl alcohol (KR 10-0789847), room temp” value is given as “Insoluble”; the “State of solution dissolved at 60° C. after cooling to room temperature, t-amyl alcohol” value is on record as “precipitated again as solids”.
